Laboratory results reported in patent EP0012161A1, “Application of 0-(2-nitro-4-methyl-phenyl)-0-methyl-N-isopropyl-phosphoroamido-thioat for inhibition of side growth of tobacco-plants” (BAYER AG, priority 1978, dated 1980).

Tests used:
Assay type in all cases: in vivo
Alnus glutinosa = assay: Growth inhibition in woody plants (Alnus glutinosa), greenhouse spray test; conditions: 1008 h, one-year seedlings sprayed to run-off, increase in growth measured after 6 weeks, 100 % = growth standstill, 0 % = growth as control, read-out: Wuchshemmung in %
Source text: (§1) Lösungsmittel : 30 Gewichtsteile Dimethylformamid Emulgator: 1 Gewichtsteil Polyoxyethylen-SorbitanMonolaurat
(§2) Zur Herstellung einer zweckmäßigen Wirkstoffzubereitung vermischt man 1 Gewichtsteil Wirkstoff mit den angegebenen Mengen Lösungsmittel und Emulgator und füllt mit Wasser auf die gewünschte Konzentration auf.
(§3) Einjährige Sämlinge mit einer Wuchshöhe von 25 cm werden mit den Wirkstoffzubereitungen bis zum Abtropfen besprüht. Nach 6 Wochen Wachstum im Gewächshaus wird der Zuwachs gemessen und die Wuchshemmung in Prozent des Zuwachses der Kontrollpflanzen berechnet. 100 % bedeuten den Stillstand des Wachstums und 0 % ein Wachstum entsprechend dem der Kontrollpflanzen.

Tabak = assay: Inhibition of side shoot growth in tobacco, greenhouse spray test after decapitation; conditions: 504 h, decapitated plants sprayed to run-off, weight of side shoots after 3 weeks versus control, 100 % = no side shoots, read-out: Wuchshemmung in %
Source text: Lösungsmittel: 30 Gewichtsteile Dimethylformamid Emulgator: 1 Gewichtsteil Polyoxyethylensorbitan-Monolaurat
Zur Herstellung einer zweckmäßigen Wirkstoffzubereitung vermischt man 1 Gewichsteil Wirkstoff mit den angegebenen Mengen Lösungsmittel und.Emulgator und füllt mit Wasser auf die gewünschte Konzentration auf.
Tabakpflanzen werden im Gewächshaus bis zur Entfaltung des 7. Laubblattes angezogen. In diesem Stadium wird die apikale Vegetationsspitze der Pflanzen entfernt und die Pflanzen werden bis zum Abtropfen mit den Wirkstoffzubereitungen besprüht. Nach 3 Wochen werden die Seitentriebe der Pflanzen herausgebrochen und gewogen. Das Gewicht der Seitentriebe der behandelten Pflanzen wird mit dem der Kontrollpflanzen verglichen. 100 % Hemmung bedeutet das Fehlen von Seitentrieben und 0 t ein Wachstum der Seitentriebe entsprechend dem der Kontrollpflanzen.

Acer pseudoplatanus = assay: Growth inhibition in woody plants (Acer pseudoplatanus), greenhouse spray test; conditions: 1008 h, one-year seedlings sprayed to run-off, increase in growth measured after 6 weeks, 100 % = growth standstill, 0 % = growth as control, read-out: Wuchshemmung in %
Source text: as §1, §2, §3

Sojabohnen = assay: Growth inhibition in soybeans, greenhouse spray test; conditions: 504 h; active compound concentration 0,05 %; plants with first trifoliate leaf unfolded sprayed dripping wet; increase in growth measured after 3 weeks; 100 % = growth standstill; read-out: Wuchshemmung in %
Source text: (§4) Lösungsmittel: 30 Gewichtsteile Dimethylformamid Emulgator: 1 Gewichtsteil Polyoxyethylen-SorbitanMonolaurat
as §2
(§5) Sojabohnenpflanzen werden im Gewächshaus bis zur vollen Entfaltung des ersten Folgeblattes angezogen. In diesem Stadium werden die Pflanzen tropfnaß mit den Wirkstoffzubereitungen besprüht. Nach 3 Wochen wird bei allen Pflanzen der Zuwachs gemessen und die Wuchshemmung in % des Zuwachses der Kontrollpflanzen berechnet. Es bedeuten 100 % den Stillstand des Wachstums und O % ein Wachstum entsprechend dem der Kontrollpflanzen.

Weizen = assay: Growth inhibition in wheat, greenhouse spray test; conditions: 504 h; active compound concentration 0,05 %; plants at 2-leaf stage sprayed dripping wet; increase in growth measured after 3 weeks; 100 = growth standstill; read-out: Wuchshemmung in %
Source text: as §4, §2
as §5, with “Weizenpflanzen werden” for “Sojabohnenpflanzen werden”, “bis zum 2-BlattStadium” for “bis zur vollen Entfaltung des ersten Folgeblattes”, “100 t” for “100 %”, “und 0” for “und O”

[1] = active compound concentration 0,1 %
[2] = active compound concentration 0,4 %

In the case of `COP(=S)(NC(C)C)Oc1ccc(C)cc1[N+](=O)[O-]` (stereo not drawn), the inhibition at 0.1 % (Alnus glutinosa; [1]) is reported as 50%, the inhibition at 0.4 % (Alnus glutinosa; [2]) is reported as 75% and the inhibition at 0.2 % (Tabak; active compound concentration 0,2 %) is reported as 92%. It also gave an inhibition at 0.4 % (Tabak; [2]) of 99%, an inhibition at 0.6 % (Tabak; active compound concentration 0,6 %) of 99% and an inhibition at 0.1 % (Acer pseudoplatanus; [1]) of 65%. It also gave an inhibition at 0.4 % (Acer pseudoplatanus; [2]) of 83%, an inhibition at 0.05 % (Sojabohnen) of 80% and an inhibition at 0.05 % (Weizen) of 35%.
